# Assay results as given in patent US20250318523A1, “Use of Pinenes to Improve Localized Insecticide Injections Targeting Western Drywood Termite (Blattodea: Kalotermitidae)” (THE REGENTS OF THE UNIVERSITY OF CALIFORNIA, priority 2024, published 2025).
# Key:
# I. minor workers [1] = test: Insecticide bioassay for fipronil (channel arena); assay type: in vivo; details: Incisitermes minor, 336 h; day 14; 10 μL of 0.06% aqueous fipronil suspension on 1.43 cm^2; pinene 100 μL of 0.1 mg/mL in methanol; read-out: final cumulative mortality
# From the text: (§1) Termites. Western drywood termites, I. minor, were extracted from several pieces of infested wood collected in Riverside, CA. Each colony was stored in a plastic container (30.5 by 21.6 by 6.4 cm) with small pieces of basswood (150 by 100 by 3.2 mm; Midwest Products Co., Inc., Darien, IL) as a food source. A couple of small openings were made on the sides of the containers for ventilation, and the containers were placed within a larger plastic box (40.6 cm by 22.9 cm by 27.9 cm) containing a saturated NaCl solution to maintain 75% relative humidity (RH) within the larger box (Winston and Bates 1960). The stock colony boxes were kept in a growth chamber (Thermo Fisher Scientific, Waltham, MA) at 26° C. without light. […]
# Insecticide Bioassay. The effect of pinenes on the efficacy of insecticide residue was evaluated using the channel arena bioassay design (FIG. 2). […]
# Two different control groups were included in the experimental design: one without insecticide, and the other with insecticide. […] Termites were recorded as dead (no movement) or alive. […]
# (§2) Statistical Analyses. […] The data were first analyzed with a Kaplan-Meier survival analysis for the insecticide bioassays. […]
# I. minor workers [2] = test: T-maze bioassay; assay type: in vivo, Incisitermes minor; details: at 24 h; for percent of termites found in the treated choice block (mean±SEM): block treated with 100 μL of 0.1 mg/mL pinene in methanol; for percent of termites found in the untreated choice block (mean±SEM): other block treated with 100 μL of 0.1 mg/mL pinene in methanol
# From the text: Termites. Western drywood termites, I. minor, were extracted from several pieces of infested wood collected in Riverside, CA. Each colony was stored in a plastic container (30.5 by 21.6 by 6.4 cm) with small pieces of basswood (150 by 100 by 3.2 mm; Midwest Products Co., Inc., Darien, IL) as a food source. A couple of small openings were made on the sides of the containers for ventilation, and the containers were placed within a larger plastic box (40.6 cm by 22.9 cm by 27.9 cm) containing a saturated NaCl solution to maintain 75% relative humidity (RH) within the larger box (Winston and Bates 1960). The stock colony boxes were kept in a growth chamber (Thermo Fisher Scientific, Waltham, MA) at 26° C. without light. To minimize the chance of using termites that were damaged during the collection process, the collected termites were left undisturbed for at least 7 days (d), and the surviving termites at the end of this period were used in the experiments. One or two different populations were randomly chosen to set up each experimental trial. Only worker termites (approximately 5 mm in length) were used for the experiments.
# Chemicals. Two monoterpenes, α-pinene (98%, Sigma-Aldrich, St. Louis, MO) and (−)-β-pinene (>99%, Sigma-Aldrich), were individually tested for their effects on drywood termite behavior. Methanol was used to dissolve the pinenes at 0.1 mg/mL concentration. Clean methanol served as a solvent-only control.
# T-maze Bioassay. A T-maze bioassay was developed to study the effects of α- or β-pinene on the choice behavior of I. minor within a simplified termite gallery system. The T-maze consisted of three basswood blocks (2.54 cm by 2.54 cm by 10.16 cm). One block served as a central acclimation block, while the other two served as lateral choice blocks (FIG. 2). All blocks were drilled along the centerline to form longitudinal tunnels (8.9 cm in depth, 0.95 cm in diameter), which ended near the opposite end of the block (about 1.2 cm away from the opposite end of the block). For the acclimation block, a through hole (0.95 cm in diameter) was drilled to add a cross tunnel, perpendicularly intersecting the longitudinal tunnel at its closed end. This cross tunnel provided connection points between the acclimation block and two choice blocks.
# Twenty termites from the stock colony were placed in the tunnel of the acclimation block and confined there for 24 hours (h) by sealing the holes with rubber stoppers. Two choice blocks were randomly assigned for treatment (treated block) or no treatment (untreated block). […] After 24 hours, T-mazes were disassembled, and numbers of termites in each of the three blocks (two choice blocks and one acclimation block) were recorded. […]
# I. minor workers [3] = test: Channel arena bioassay; assay type: in vivo, Incisitermes minor; details: after 24 hours; pinene 1.3 μg/cm2 (100 μL of 0.1 mg/mL in methanol); 20 termites, 10 replicates
# From the text: as §1
# To establish the “initial-aggregation zone,” twenty termites were confined to a 5-cm zone at one end of the channel for 24 hours (h) using a cotton plug (FIG. 1). […] After 24 hours (h), the number of termites in the treatment zone was counted under red light (110 lux, Tacklife; Levittown, NY) to minimize any disruption to the termites during observation (Cabrera and Rust 1996). […]
# as §2
SMILES,mortality at 100 µg/mL (I. minor workers [1]) [%],percent of termites found in the treated choice block (mean±SEM) (I. minor workers [2]) [%],percent of termites found in the untreated choice block (mean±SEM) (I. minor workers [2]) [%],percent of termites found in the treatment zone (mean±SEM) (I. minor workers [3]) [%]
"N#Cc1nn(-c2c(Cl)cc(C(F)(F)F)cc2Cl)c(N)c1[S+]([O-])C(F)(F)F (stereo not shown) [fipronil only, fipronil]",76.5 ± 5.7,,,
CC1=CCC2CC1C2(C)C (stereo not drawn) [α-pinene],,45.5±14.1,7.0±7.0,55±9.3
"C=C1CC[C@H]2C[C@@H]1C2(C)C [β-pinene, (−)-β-pinene]",,54.5±14.8,4.5±3.5,58±6.3
